Target: T1, SIRT1 (Homo sapiens, UniProt Q96EB6)
T1 sequence (Q96EB6 1-747): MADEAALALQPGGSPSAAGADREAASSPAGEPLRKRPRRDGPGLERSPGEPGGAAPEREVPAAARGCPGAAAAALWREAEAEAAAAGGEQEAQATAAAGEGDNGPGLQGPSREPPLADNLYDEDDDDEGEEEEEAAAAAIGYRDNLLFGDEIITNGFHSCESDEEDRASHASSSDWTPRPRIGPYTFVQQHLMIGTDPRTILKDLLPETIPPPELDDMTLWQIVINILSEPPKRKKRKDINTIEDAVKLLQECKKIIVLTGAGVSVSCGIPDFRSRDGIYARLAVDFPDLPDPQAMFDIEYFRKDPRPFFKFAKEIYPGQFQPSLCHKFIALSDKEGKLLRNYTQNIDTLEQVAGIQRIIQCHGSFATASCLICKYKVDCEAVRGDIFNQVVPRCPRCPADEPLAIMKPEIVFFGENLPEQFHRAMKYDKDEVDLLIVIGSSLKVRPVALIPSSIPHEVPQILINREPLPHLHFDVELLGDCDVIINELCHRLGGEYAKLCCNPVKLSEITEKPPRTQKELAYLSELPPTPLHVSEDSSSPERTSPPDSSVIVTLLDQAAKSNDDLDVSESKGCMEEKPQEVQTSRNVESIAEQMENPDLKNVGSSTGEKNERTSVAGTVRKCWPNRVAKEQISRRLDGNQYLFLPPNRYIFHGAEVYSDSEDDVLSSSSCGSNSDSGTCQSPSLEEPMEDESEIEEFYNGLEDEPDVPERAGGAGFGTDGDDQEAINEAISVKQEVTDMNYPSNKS
Assay: Trp mass spectrometry assay (SIRT1 activation)
Format: biochemical
Settings: Trp mass spectrometry assay; for Tryp AVG EC1.5 (μM): EC1.5 = concentration giving 150% activation of SIRT1; for Emax: percent maximum fold activation of SIRT1, read-out: Tryp % Fold Act
How it was run: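 Activation is expressed as EC1.5, the concentration raising activity 50% above DMSO control, and as maximum percent of control. Mass-spec readout was OAADPR or deacetylated Trp peptide after a formic-acid-quenched 25-min, 25 °C reaction: 10 nM bacterially expressed His-SIRT1, 0.5 μM acetyl-p53-derived peptide, 120 μM NAD+, pH 7.5 HEPES with […].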

SMILES | Tryp AVG EC1.5 (μM) | Emax
O=C(Nc1cccc(-c2cnco2)c1)N1c2nc(-c3cncc(F)c3)ccc2N2CC[C@H]1C2 [Example 722] | A (EC1.5<1 μM) | ≥ 150%
CS(=O)(=O)c1cccc(-c2ccc3c(n2)N(C(=O)Nc2cc(-c4cnco4)ccn2)[C@H]2CCN3C2)c1 [Example 723] | A (EC1.5<1 μM) | ≥ 150%
CS(=O)(=O)c1cccc(-c2ccc3c(n2)N(C(=O)Nc2cncc(-c4cnco4)c2)[C@H]2CCN3C2)c1 [Example 724] | A (EC1.5<1 μM) | ≥ 150%
NCc1ncc(-c2cccc(NC(=O)N3c4nc(-c5cccc(C(F)(F)F)c5)ccc4N4CC[C@H]3C4)c2)o1 [Example 725] | A (EC1.5<1 μM) | ≥ 150%
O=C(Nc1cc(-c2cnco2)ccn1)N1c2nc(-c3cncc(C(F)(F)F)c3)ccc2N2C[C@@H](O)[C@H]1C2 [Example 726] | B (EC1.5 1-25 μM) | < 150%
O=C(Nc1cc(-c2cnco2)ccn1)N1c2nc(-c3cncc(F)c3)ccc2N2CC[C@H]1C2 [Example 727] | A (EC1.5<1 μM) | ≥ 150%
O=C(Nc1cccc(CN2CCNCC2)c1)N1c2nc(-c3cccc(C(F)(F)F)c3)ccc2N2CC[C@H]1C2 [Example 731] | A (EC1.5<1 μM) | ≥ 150%
O=C(Nc1nnc(-c2ccncc2)s1)N1c2nc(-c3cccc(C(F)(F)F)c3)ccc2N2CC[C@H]1C2 [Example 733] | A (EC1.5<1 μM) | ≥ 150%
O=C(Nc1ncc(-c2ccccc2)s1)N1c2nc(-c3cccc(C(F)(F)F)c3)ccc2N2CC[C@H]1C2 [Example 734] | B (EC1.5 1-25 μM) | ≥ 150%
CCCC(=O)c1cccc(NC(=O)N2c3nc(-c4cccc(C(F)(F)F)c4)ccc3N3CC[C@H]2C3)c1 [Example 736] | A (EC1.5<1 μM) | ≥ 150%
CCCCC(=O)c1cccc(NC(=O)N2c3nc(-c4cccc(C(F)(F)F)c4)ccc3N3CC[C@H]2C3)c1 [Example 737] | A (EC1.5<1 μM) | ≥ 150%
O=C(Nc1cccc(-c2cnco2)n1)N1c2nc(-c3cncc(F)c3)ccc2N2CC[C@H]1C2 [Example 739] | A (EC1.5<1 μM) | ≥ 150%
CC(C)C(=O)c1cccc(NC(=O)N2c3nc(-c4cccc(C(F)(F)F)c4)ccc3N3CC[C@H]2C3)c1 [Example 740] | A (EC1.5<1 μM) | ≥ 150%
O=C(Nc1cccc(-c2cnco2)c1)N1c2nc(N3CCCN(CC(F)(F)F)CC3)ccc2N2CC[C@H]1C2 [Example 741] | A (EC1.5<1 μM) | ≥ 150%
CN1CCN(c2ccnc(NC(=O)N3c4nc(-c5cccc(C(F)(F)F)c5)ccc4N4CC[C@H]3C4)n2)CC1 [Example 742] | A (EC1.5<1 μM) | ≥ 150%
O=C(Nc1cc(-c2cnco2)cc(-c2cnco2)c1)N1c2nc(-c3cccc(C(F)(F)F)c3)ccc2N2CC[C@H]1C2 [Example 743] | A (EC1.5<1 μM) | ≥ 150%
O=C(Nc1nccc(N2CCNCC2)n1)N1c2nc(-c3cccc(C(F)(F)F)c3)ccc2N2CC[C@H]1C2 [Example 745] | B (EC1.5 1-25 μM) | ≥ 150%
Cc1cc(-c2ccc3c(n2)N(C(=O)Nc2cc(-c4cnco4)ccn2)[C@H]2CCN3C2)ccn1 [Example 746] | A (EC1.5<1 μM) | ≥ 150%
CN(C)c1ccnc(NC(=O)N2c3nc(-c4cccc(C(F)(F)F)c4)ccc3N3CC[C@H]2C3)n1 [Example 747] | A (EC1.5<1 μM) | ≥ 150%
Cc1cc(-c2ccc3c(n2)N(C(=O)Nc2cncc(-c4cnco4)c2)[C@H]2CCN3C2)ccn1 [Example 748] | A (EC1.5<1 μM) | ≥ 150%

SMILES | Tryp AVG EC1.5 (μM) | Emax
CC(C)(C)OC(=O)NCC#Cc1cc(NC(=O)N2c3nc(-c4cccc(C(F)(F)F)c4)ccc3N3CC[C@H]2C3)cc(-c2cnco2)c1 [Example 749] | A (EC1.5<1 μM) | ≥ 150%
CC(C)(C)OC(=O)NCCCc1ccc(NC(=O)N2c3nc(-c4cccc(C(F)(F)F)c4)ccc3N3CC[C@H]2C3)cc1-c1cnco1 [Example 750] | A (EC1.5<1 μM) | ≥ 150%
CC(C)(C)OC(=O)NCC#Cc1ccc(NC(=O)N2c3nc(-c4cccc(C(F)(F)F)c4)ccc3N3CC[C@H]2C3)cc1-c1cnco1 [Example 751] | A (EC1.5<1 μM) | ≥ 150%
CC(C)(C)OC(=O)NCCCc1ccc(NC(=O)N2c3nc(-c4cccc(C(F)(F)F)c4)ccc3N3CCC[C@H]2C3)cc1-c1cnco1 [Example 752] | A (EC1.5<1 μM) | ≥ 150%
CC(C)(C)OC(=O)NCC#Cc1ccc(NC(=O)N2c3nc(-c4cccc(C(F)(F)F)c4)ccc3N3CCC[C@H]2C3)cc1-c1cnco1 [Example 753] | A (EC1.5<1 μM) | ≥ 150%
CC(C)(C)OC(=O)NCCCc1cc(NC(=O)N2c3nc(-c4cccc(C(F)(F)F)c4)ccc3N3CCC[C@H]2C3)cc(-c2cnco2)c1 [Example 754] | A (EC1.5<1 μM) | 
NCc1cccc(NC(=O)N2c3nc(-c4cccc(C(F)(F)F)c4)ccc3N3CC[C@H]2C3)c1 [Example 755] | B (EC1.5 1-25 μM) | ≥ 150%
NCCCCCC(=O)NCc1cccc(NC(=O)N2c3nc(-c4cccc(C(F)(F)F)c4)ccc3N3CCC[C@H]2C3)c1 [Example 756] | A (EC1.5<1 μM) | ≥ 150%
NCc1cccc(NC(=O)N2c3nc(-c4cccc(C(F)(F)F)c4)ccc3N3CCC[C@H]2C3)c1 [Example 757] | A (EC1.5<1 μM) | ≥ 150%
NCCCCCC(=O)NCc1cccc(NC(=O)N2c3nc(-c4cccc(C(F)(F)F)c4)ccc3N3CC[C@H]2C3)c1 [Example 758] | A (EC1.5<1 μM) | ≥ 150%
CC(C)(C)OC(=O)NCCCc1cc(NC(=O)N2c3nc(-c4cccc(C(F)(F)F)c4)ccc3N3CC[C@H]2C3)cc(-c2cnco2)c1 [Example 759] | B (EC1.5 1-25 μM) | ≥ 150%
CC(C)(C)OC(=O)NCC#Cc1cc(NC(=O)N2c3nc(-c4cccc(C(F)(F)F)c4)ccc3N3CCC[C@H]2C3)cc(-c2cnco2)c1 [Example 760] | A (EC1.5<1 μM) | ≥ 150%
FC(F)(F)c1cccc(-c2ccc3c(n2)N(C(=S)Nc2cccc(-c4cnco4)c2)[C@H]2CCN3C2)c1 [Example 763] | A (EC1.5<1 μM) | ≥ 150%
NCCCc1ccc(NC(=O)N2c3nc(-c4cccc(C(F)(F)F)c4)ccc3N3CC[C@H]2C3)cc1-c1cnco1 [Example 765] | A (EC1.5<1 μM) | ≥ 150%
NCC#Cc1ccc(NC(=O)N2c3nc(-c4cccc(C(F)(F)F)c4)ccc3N3CC[C@H]2C3)cc1-c1cnco1 [Example 766] | A (EC1.5<1 μM) | ≥ 150%
NCCCc1ccc(NC(=O)N2c3nc(-c4cccc(C(F)(F)F)c4)ccc3N3CCC[C@H]2C3)cc1-c1cnco1 [Example 767] | A (EC1.5<1 μM) | ≥ 150%
NCCCc1cc(NC(=O)N2c3nc(-c4cccc(C(F)(F)F)c4)ccc3N3CC[C@H]2C3)cc(-c2cnco2)c1 [Example 770] | A (EC1.5<1 μM) | ≥ 150%
N=C(N)NCc1ncc(-c2cccc(NC(=O)N3c4nc(-c5cccc(C(F)(F)F)c5)ccc4N4CC[C@H]3C4)c2)o1 [Example 776] | A (EC1.5<1 μM) | ≥ 150%
N=C(N)NCc1ccc(NC(=O)N2c3nc(-c4cccc(C(F)(F)F)c4)ccc3N3CCC[C@H]2C3)cc1 [Example 777] | A (EC1.5<1 μM) | ≥ 150%
